Source: PMC4547793, “Trichodysplasia spinulosa-Associated Polyomavirus Uses a Displaced Binding Site on VP1 to Engage Sialylated Glycolipids” (PLoS Pathogens, 2015)

What was measured:
Type in all cases: binding
TSPyV VP1 [1] = biological target: T1, TSPyV VP1 (Trichodysplasia spinulosa-associated polyomavirus, UniProt E2ESL7); assay: X-ray crystal structure, soaked ([…] Å); conditions: 10 mM glycan, 15 min soak of native crystals, reservoir pH 5.0; BC2-loop site with ccw DE-loop
T1 construct: N- and C-terminally truncated VP1 (aa 31-304), pET28b, E. coli BL21(DE3); unassembled homopentamer

TSPyV VP1 [2] = biological target: T1, TSPyV VP1; assay: X-ray co-crystal structure ([…] Å); conditions: 10 mM glycan, co-crystallization, 20 °C, reservoir pH 5.0; BC2-loop site with ccw DE-loop
TSPyV VP1 [3] = biological target: T1, TSPyV VP1; assay: X-ray co-crystal structure ([…] Å); also STD NMR; conditions: 10 mM glycan, co-crystallization, 20 °C, reservoir pH 5.0; STD NMR pH 7.4, 288 K; BC2-loop site with ccw DE-loop

SMILES: CC(=O)N[C@H]1[C@H]([C@H](O)[C@H](O)CO)O[C@@](O[C@H]2[C@@H](O)[C@@H](CO)O[C@@H](O[C@H]3[C@H](O)[C@@H](O)C(O)O[C@@H]3CO)[C@@H]2O)(C(=O)O)C[C@@H]1O (stereo partly drawn) [3’SL]
- X-ray crystal structure, soaked (1.55 Å) (TSPyV VP1 [1]): 4U62 (TSPyV VP1-3’SL)

SMILES: CC(=O)N[C@H]1[C@H]([C@H](O)[C@H](O)CO)O[C@@](OC[C@H]2O[C@@H](O[C@H]3[C@H](O)[C@@H](O)C(O)O[C@@H]3CO)[C@H](O)[C@@H](O)[C@H]2O)(C(=O)O)C[C@@H]1O (stereo partly drawn) [6’SL]
- X-ray co-crystal structure (1.65 Å) (TSPyV VP1 [2]): 4U61 (TSPyV VP1-6’SL)

SMILES: CC(=O)N[C@H]1[C@H](O[C@@H]2[C@H](O[C@]3(C(=O)O)C[C@H](O)[C@@H](NC(C)=O)[C@H]([C@H](O)[C@H](O)CO)O3)[C@@H](O)[C@H](O[C@H]3[C@H](O)[C@@H](O)C(O)O[C@@H]3CO)O[C@@H]2CO)O[C@H](CO)[C@H](O)[C@@H]1O[C@@H]1O[C@H](CO)[C@H](O)[C@H](O)[C@H]1O (stereo partly drawn) [GM1 glycan]
- X-ray co-crystal structure (1.50 Å); also STD NMR (TSPyV VP1 [3]): 4U60 (TSPyV VP1-GM1 glycan)
